Assay results from patent US9351963B2, “Defensin-like molecules as novel antimicrobial agents” (UNIVERSITY OF MARYLAND, BALTIMORE, priority 2010, dated 2016).

Experiments:
[1] = test system: S. aureus ATCC 29213; assay: Murine peritoneal sepsis model; type: in vivo, C57BL/6J mice; conditions: mouse, in vivo
Method: Adult C57BL/6J mice (˜18 grams, 8-10 weeks old) were used for all experiments. Mice were obtained from the Jackson Laboratory (Bar Harbour, Me., USA) and housed in the IHV SPC animal core facility. Mice were fed standard chow (Harlan Laboratories) and water ad libitum. To assess the protective potency of defensin mimetic BAS00127538, groups of 5 mice were inoculated intraperitoneally ˜10^7 CFU/mL of S. aureus ATCC 29213 in 500 μL saline solution/25% DMSO plus 4.5% (w/v) porcine gastric mucin (Sigma Chemical Co., St Louis, Mo.). Infected animals (n=5) were subsequently treated by intra-peritoneal injection 1 and 4 hours post-infection with 2.5 mg/kg of compound in 100 μL sterile saline solution plus 25% DMSO (V/V), vancomycin/lysostaphin (5 mg/kg, saline solution/25% DMSO) or vehicle (saline solution/25% DMSO) as positive and negative controls respectively. Animals were closely observed during a period of 24 hours and mice that show signs of severe sepsis were humanely euthanized. Blood samples were collected by retro-orbital puncture at the indicated intervals post-infection using lithium-heparin polystyrene tubes to prevent coagulation. Spleens were harvested aseptically, weighed and homogenized in 500 μl of sterile saline solution using an IKA T10 basic disperser (IKA, Wilmington N.C.). Whole blood samples and spleen homogenates were serially diluted and plated onto LB agar plates. Bacterial counts were determined following 24 h incubation at 37° C. and expressed as CFU per milliliter for blood and CFU per gram for spleen.
Next, a murine model for sepsis was established to evaluate the efficacy of the lead defensin mimetics as antibiotic agents in vivo. […] Mice (n=5) were inoculated intraperitoneally with S. aureus 29213 and treated 1 h and 4 h post-infection with compound BAS00127538 at 2.5 mg/kg intraperitoneally Animals were monitored for survival and blood and spleen samples were collected. Bacterial counts were determined and compared to control treatment with vancomycin/lysostaphin as measures of efficacy (FIG. 6).

[2] = test system: Staphylococcus aureus ATCC 29213; assay: Antagonization assay of antibacterial activity against S. aureus; type: cell-based; conditions: for Effect of pre-incubation with D-Ala (Diacetyl-Lys-D-Ala-D-Ala) on killing of S. aureus / Effect of pre-incubation with D-Lac (diacetyl-Lys-D-ala-D-Lac) on killing of S. aureus: 1:200 molar ratio, 30 min
Method: Antagonization of the antibacterial activity of defensins against Staphylococcus aureus ATCC 29213 was carried out in a 96-well turbidimetric assay essentially as described previously (Erickson et al.). Defensins (50 μM final concentration) were pre-incubated with the following compounds for 30 min at RT: 1) 3-Lipid II at 1:1, 1:2.5 and 1:5 defensin:Lipid II molar ratios; or; 2) DiAcetyl-Lys-D-Alanine-D-Alanine and DiAcetyl-Lys-D-Alanine-D-Lac at 1:200 molar ratios. Additionally, vancomycin (500 μM) was pre-incubated separately with D-Ala and D-Lac at a 1:200 molar ratio. Following incubation, solutions were diluted two-fold in ten steps and bacteria were added. Bacterial cells were exposed to HNP1 or vancomycin for 30 min and to HD-5 for 60 min in all studies. Defensin activity was neutralized by the addition of Mueller Hinton broth. Bacterial growth was monitored for 12 hours and data were analyzed as described (Erickson et al.).
Next, the inventors examined whether the antibacterial activity of HNP-1 could be antagonized by soluble Lipid II as a measure for functional interaction. HNP-1 (50 μM) was pre-incubated with 3-Lipid II at varying molar ratios and killing of S. aureus was determined using the vCC protocol (Erickson et al.) (FIG. 3). […] Survival curves of S. aureus ATCC 29213 exposed to HNP1 (at concentrations varying two-fold from 50 to 1.25 μM). Defensin peptide was pre-incubated with 3-Lipid II at varying molar ratios for 30 min prior to addition of bacteria. Bacteria were subsequently exposed to HNP-1 for 30 min. Each curve is the mean of two separate experiments (±S.D.). Points scored as zero survival could not be plotted.
The D-Ala-D-Ala motif in the pentapeptide is the predominant binding site for vancomycin, a drug of “last resort” for many multi-drug resistant Gram-positive infections. To examine if the interaction of HNP-1 with Lipid II overlaps with the vancomycin binding site, antagonization assays were performed. Diacetyl-Lys-D-Ala-D-Ala (D-Ala) was used as […] and the non-specific peptide diacetyl-Lys-D-ala-D-Lac (D-Lac) as a control. Both vancomycin and HNP-1 were pre-incubated at a 1:200 molar ratio with both compounds for 30 min, similar to experiments with soluble Lipid II (FIG. 3). Subsequently, the inventors determined any antagonizing effects on the killing of S. aureus (FIG. 4). […] In particular, survival curves of S. aureus ATCC 29213 exposed to HNP1 (upper panel) at concentrations varying two-fold from 50 to 1.25 μM or to vancomycin (lower panel) at concentrations varying two-fold from 2 to 0.0125 μM. HNP-1 and vancomycin were pre-incubated with D-ala or D-lac at a 1:200 molar ratio for 30 min prior to addition of bacteria. Bacteria were subsequently exposed to HNP-1 or vancomycin for 30 min. Each curve is the mean of two separate experiments (±S.D.). Points scored as zero survival could not be plotted.

[3] = Surface Plasmon Resonance binding to immobilized 3-Lipid II (BIAcore); conditions: SPR, 10 μM, room temperature, 40 RUs 3-Lipid II
Method: Short-chain water-soluble Lipid II containing a lipid tail of three isoprene units was generated and purified essentially as described (Breukink, E., van Heusden, H. E., Vollmerhaus, P. J., Swiezewska, E., Brunner, L., Walker, S., Heck, A. J., and de Kruijff, B. (2003) J Biol Chem 278, 19898-19903). Typically, M. flavus vesicles (120 μmol lipid-Pi) were incubated together with 500 μmol UDP-GlcNAc, 500 μmol UDP-MurNAC-pentapeptide and 400 μmol farnesyl phosphate (3-P) in 100 mM Tris-HCl pH 8.0, 5 mM MgCl2. The incubation lasted two hours at room temperature for 3-P. The synthesis of 3-Lipid II was followed using RP-8 reversed phase TLC (Merck) developed in 75% methanol. For purification, the membranes were removed by centrifugation at 40,000×g and the supernatant was collected and loaded on a C18 HPLC column and eluted with a linear gradient from 50 mM ammonium bicarbonate to 100% methanol in 30 minutes. Farnesyl-Lipid II (3-Lipid II) eluted at approximately 60% methanol. Its identity was confirmed by mass spectroscopy.
Surface Plasmon Resonance binding experiments were carried out on a BIAcore T100 system (BIAcore Inc., Piscataway, N.Y.) at 25° C. The assay buffer was 10 mM HEPES, 150 mM NaCl, 0.05% surfactant P20, pH 7.4 (±3 mM EDTA) supplemented with 10% DMSO. […] For initial determination of binding, defensin mimetics were introduced into the flow-cells (30 μl/min) in the running buffer at 10 μM. Resonance signals were corrected for nonspecific binding by subtracting the background of the control flow-cell. After each analysis, the sensor chip surfaces were regenerated with 50 mM NaOH for 30 s at a flow rate 100 μl/min, and equilibrated with the buffer prior to next injection. For binding kinetics studies, binding isotherms were analyzed with manufacturer-supplied software for BIAcore T100.

[4] = test system: Escherichia coli ATCC 25922; assay: 96-well turbidimetric antibacterial killing assay, E. coli; type: cell-based; conditions: E. coli ATCC 25922, 120 min exposure
Method: The antibacterial activity of defensin mimetics against Staphylococcus aureus ATCC 29213 and Escherichia coli 25922 was carried out in a 96-well turbidimetric assay essentially as described (Ericksen, B., Wu, Z., Lu, W., and Lehrer, R. I. (2005) Antimicrob Agents Chemother 49, 269-275) with the following modifications: compounds were exposed for 30 min to […] prior to addition of […] in 10 mM phosphate buffer containing 5% DMSO. Bacterial growth was monitored for 12 hours and data were analyzed as described (Ericksen, et al). Determination of MICs was performed by Micromyx, LLC (Kalamazoo, Mich.) according to CLSI standards (CLSI. (2009) Methods for Dilution Antimicrobial Susceptibility Tests for Bacteria That Grow Aerobically; Approved Standard—Eighth Edition.)
The inventors have previously reported on the antibacterial activity of HNP1 and all of its structurally uncompromised single alanine mutants against S. aureus (Wei, G., Pazgier, M., de Leeuw, E., Rajabi, M., Li, J., Zou, G., Jung, G., Yuan, W., Lu, W. Y., Lehrer, R. I., and Lu, W. J Biol Chem 285, 16275-16285). […] If these residues are indeed important for Lipid II binding, one would expect that replacement by alanine will not affect killing of Gram-negative bacteria. […] In particular, FIG. 12 depicts killing of E. coli by HNP-1 Lipid II single alanine mutants. Survival curves of E. coli ATCC 25922 exposed to HNP-1 or HNP-1 single alanine mutants at concentrations varying two-fold from […]. Bacteria were exposed to defensin peptides for 120 min. Each curve is the mean of two separate experiments (±S.D.). Points scored as zero survival could not be plotted.

[5] = test system: Staphylococcus aureus ATCC 29213; conditions: previously reported (Wei et al., J Biol Chem 285); cited from earlier work

Row | Compound | Efficacy in vivo in a murine model for sepsis [1] | Binding of HNP-1 single alanine mutants to Lipid II compared to wild-type HNP-1 [3] | also measured
1 | c1ccc(-c2nc(N(c3ccccc3)c3ccccc3)s[n+]2-c2ccccc2)cc1 [Compound 1492-0330, 5-(diphenylamino)-2,3-diphenyl-1,2$1^5,4-thiadiazol-2-ylium] | proven effective |  | 
2 | CN(C)c1ccc(/C=C/c2cc(C(C)(C)C)[o+]c(C(C)(C)C)c2)cc1 [Compound 1493-0289, 2,6-di-tert-butyl-4-[(E)-2-[4-(dimethylamino)phenyl]ethenyl]-1$1^4-pyran-1-ylium] | proven effective |  | 
3 | Oc1ccccc1Oc1c(F)c(F)c(-c2c(F)c(F)c(Oc3ccccc3O)c(F)c2F)c(F)c1F [Compound 1611-0203, 2-{2,3,5,6-tetrafluoro-4-[2,3,5,6-tetrafluoro-4-(2-hydroxyphenoxy)phenyl]phenoxy}phenol] | proven effective |  | 
4 | CC[n+]1c(/C=C2C=C(/C=C/N(C)c3ccccc3)CC(C)(C)C/2)sc2ccccc21 [Compound 4090-1978, 2-{[(1E)-5,5-dimethyl-3-[(E)-2-[methyl(phenyl)amino]ethenyl]cyclohex-2-en-1-ylidene]methyl}-3-ethyl-1,3-benzothiazol-3-ium] | proven effective |  | 
5 | CC[n+]1c(/C=C2C=C(/C=C/C(C)=C\N(C)C)CC(C)(C)C/2)sc2ccccc21 [Compound 4090-1979, 2-{[(1E)-3-[(1E,3Z)-4-(dimethylamino)-3-methylbuta-1,3-dien-1-yl]-5,5-dimethylcyclohex-2-en-1-ylidene]methyl}-3-ethyl-1,3-benzothiazol-3-ium] | proven effective |  | 
6 | CCCCC[n+]1c(/C=C2\Sc3cc(NC(C)=O)ccc3N2CC)ccc2ccccc21 [Compound 4890-0291, N-[(2Z)-3-ethyl-2-[(1-pentylquinolin-1-ium-2-yl)methylidene]-1,3-benzothiazol-6-yl]acetamide] | proven effective |  | 
7 | CN[C@H](CC(C)C)C(=O)N[C@H]1C(=O)N[C@@H](CC(N)=O)C(=O)N[C@H]2C(=O)N[C@H]3C(=O)N[C@H](C(=O)N[C@H](C(=O)O)c4cc(O)cc(O)c4-c4cc3ccc4O)[C@H](O)c3ccc(c(Cl)c3)Oc3cc2cc(c3O[C@@H]2O[C@H](CO)[C@@H](O)[C@H](O)[C@H]2O[C@H]2C[C@](C)(N)[C@H](O)[C@H](C)O2)Oc2ccc(cc2Cl)[C@H]1O [Vancomycin, vancomycin] |  |  | Effect of pre-incubation with D-Ala (Diacetyl-Lys-D-Ala-D-Ala) on killing of S. aureus [2]: specifically inhibited the killing; Effect of pre-incubation with D-Lac (diacetyl-Lys-D-ala-D-Lac) on killing of S. aureus [2]: not altered; Killing of S. aureus ([2]; without antagonist, 30 min exposure): very effectively
8 | Arg5: HNP-1 single alanine mutant, Arg5 replaced by alanine |  | did not affect binding | 
9 | Arg15: HNP-1 single alanine mutant, Arg15 replaced by alanine |  | significant reduction of binding | Bactericidal activity against E. coli relative to wild-type HNP-1 [4]: exception; Killing of S. aureus by HNP-1 single alanine mutants [5]: severely compromised
10 | Gly23: HNP-1 single alanine mutant, Gly23 replaced by alanine |  | did not affect binding | 
11 | HNP-1 R24A mutant: HNP-1 single alanine mutant, Arg24 replaced by alanine |  | maintained significant binding | 
12 | HNP-1: α-defensin Human Neutrophil Peptide 1, chemically synthesized, wild-type |  |  | Bactericidal activity after pre-incubation with 3-Lipid II ([2]; 1:1 molar ratio, 30 min pre-incubation, S. aureus): reduced by one order of magnitude; Effect of pre-incubation with D-Ala (Diacetyl-Lys-D-Ala-D-Ala) on killing of S. aureus [2]: not competitively inhibited; Effect of pre-incubation with D-Lac (diacetyl-Lys-D-ala-D-Lac) on killing of S. aureus [2]: not competitively inhibited
13 | Ile10: HNP-1 single alanine mutant, Ile10 replaced by alanine |  | did not affect binding | 
